The values below come from patent US9056099B2, “Compositions and methods for treating viral diseases” (NovaDrug, LLC, priority 2010, dated 2015).

The subject of this assay is HCV (JFH-1) in Huh7-1 cells. The experiment in a line: Assay for anti-HCV efficacy: JFH-1 HCV infection of Huh7-1 cultures, intracellular HCV RNA by RT-qPCR. Format: cell-based, Hepatitis C virus. The note with it: Compound Example 2 series; % viral titer at 5 μM or 15 μM; HCV-infected Huh7-1 cultures. From the text: In the past, HCV studies involved mainly infected patients and chimpanzees. Recently, a robust HCV infection system was developed with cells derived from the Huh-7 human hepatoma cell line (see, for example, Yu et al., “Development of a cell-based hepatitis C virus infection fluorescent resonance energy transfer assay for high-throughput antiviral compound screening” Antimicrob Agents Chemother. 2009 53:4311-4319 for additional details regarding growing virus stocks, maintenance of the Huh-7 cells, infection parameters, and HCV titers determinations; and Yu & Uprichard “Cell-based hepatitis C virus infection fluorescence resonance energy transfer (FRET) assay for antiviral compound screening” Curr Protoc Microbiol. 2010; Chapter 17: Unit 17.5). Briefly, the assay is based on the unique JFH-1 HCV consensus cDNA derived from an HCV patient. Using reverse genetics, the infectious virus can be rescued from this HCV clone. The recovered viable JFH virus can be passaged serially in Huh-7 cells. For this reason, this system is amenable for testing the activity of potential drugs for their anti-HCV efficacy. The antiviral activity of the compounds described herein is tested in this system.
Initially, 6×10^3 Huh7-1 cells are incubated overnight in each well of collagen-coated BioCoat 96-well plates (BD Biosciences, Bedford, Mass.) in 0.2 mL 10% Medium composed of Dulbecco's modified Eagle's medium supplemented with 10% fetal bovine serum. Subsequently, at 2 day intervals, the cultures are replenished with fresh 0.2 mL 10% Medium. Once the cultures become confluent, they are continually replenished at 2 day intervals with fresh 0.2 mL 10% Medium that also includes 1% dimethyl sulfoxide (DMSO). After 20 days of these replenishments, the Huh7-1 cultures are incubated with fresh 1% Medium (same as 10% Medium except that the serum level is 1%) containing HCV at a multiplicity of infection (MOI) of 0.05 focus forming units (ffu)/cell. The HCV (JFH-1wt Huh7) stock titer is 1.5×10^5 ffu/mL. The next day (day 1 post-infection) and 2 days later (day 3 post-infection) the media are replenished with fresh 1% Medium containing the test compounds dissolved in DMSO. On the 5th day of treatment with the compounds, cell lysates are collected for RNA isolation and Real Time-quantitative Reverse Transcription Polymerase Chain Reaction (RT-qPCR) and culture media are collected for cytotoxicity analysis.
Total RNA is isolated from cells by the guanidine thiocyanate method using standard protocols. One μg RNA is used for cDNA synthesis using TaqMan reverse transcription reagents (Applied Biosystems, Foster City, Calif.) followed by real-time PCR using an Applied Biosystems 7300 real-time thermocycler. Illustrative thermal cycling consists of initial denaturation of 10 min at 95° C. followed by 40 cycles of denaturation (15 s at 95° C.) and annealing/extension (1 m at 60° C.). HCV and human glyceraldehyde-3-phosphate dehydrogenase (GAPDH) RNA levels are determined relative to a standard curve of serial dilutions of plasmid containing JFH-1 HCV or GAPDH cDNA. The PCR primers used to detect GAPDH and HCV are illustratively: GAPDH (NMX002046) 5′-GAAGGTGAAGGTCGGAGTC-3′ (SEQ ID NO: 5) (sense) and 5′-[…]-3′ (SEQ ID NO: 6) (anti-sense) JFH-1 HCV (AB047639) 5′-TCTGCGGAACCGGTGAGTA-3′ (SEQ ID NO: 7) (sense) and 5′-TCAGGCAGTACCACAAGGC-3′ (SEQ ID NO: 8) (anti-sense).
FIGS. 1-7 illustrate the intracellular HCV RNA levels when cultures are incubated with the selected test compounds at the doses shown. When HCV RNA levels are compared among the samples, the data may indicate that the compounds cause a dose dependent decrease in HCV RNA levels relative to the mock-treated (no compound added) HCV infected control.
(In general: In qPCR the cycle at which signal appears reflects the starting amount.)
On to `O=C(c1ccccn1)N1C[C@@H](c2ccc(F)cc2)[C@@H]2CN(Cc3ccc(F)cc3)CC[C@@H]21`, for which the “Activity (viral titer)” value was “− (>60% viral titer at 15 μM (highest concentration tested))”.

Take `COc1cccc(CN2CC[C@H]3[C@@H](C2)[C@H](c2ccc(F)cc2)CN3C(=O)c2cccnc2)c1`: the “Activity (viral titer)” value is “+ (≦60% viral titer at 15 μM)”.

With `Cc1nn(C)cc1CN1CC[C@H]2[C@@H](C1)[C@H](c1ccc(F)cc1)CN2C(=O)c1cccnc1`, the “Activity (viral titer)” value was “− (>60% viral titer at 15 μM (highest concentration tested))”.

As to `O=C(c1cccnc1)N1CC(c2ccc(F)cc2)C2CN(Cc3cccc(F)c3)CCC21` (stereo not drawn), the “Activity (viral titer)” value was “− (>60% viral titer at 15 μM (highest concentration tested))”.

Take `O=C(c1ccc(F)cc1)N1CC(c2ccsc2)C2CN(Cc3ccccc3F)CCC21` (stereo not drawn): the “Activity (viral titer)” value is on record as “− (>60% viral titer at 15 μM (highest concentration tested))”.

As for `Cc1ccccc1CN1CC[C@H]2[C@@H](C1)[C@H](c1ccsc1)CN2C(=O)c1ccc(F)cc1`, the “Activity (viral titer)” value was “− (>60% viral titer at 15 μM (highest concentration tested))”.

As to `O=C(c1ccc(F)cc1)N1CC(c2ccsc2)C2CN(Cc3ccccn3)CCC21` (stereo not drawn), the “Activity (viral titer)” value is “− (>60% viral titer at 15 μM (highest concentration tested))”.

With `O=C(c1ccc(F)cc1)N1C[C@@H](c2ccsc2)[C@@H]2CN(Cc3cccc(F)c3)CC[C@@H]21`, the “Activity (viral titer)” value is listed as “− (>60% viral titer at 15 μM (highest concentration tested))”.

As for `Cc1ccc(CN2CCC3C(C2)C(c2ccsc2)CN3C(=O)c2ccc(F)cc2)cc1` (stereo not drawn), the “Activity (viral titer)” value was “− (>60% viral titer at 15 μM (highest concentration tested))”.

`O=C(c1ccc(F)cc1)N1C[C@@H](c2ccsc2)[C@@H]2CN(Cc3ccncc3)CC[C@@H]21`: the “Activity (viral titer)” value is “− (>60% viral titer at 15 μM (highest concentration tested))”.

Consider `O=C(c1ccncc1)N1C[C@@H](c2ccsc2)[C@@H]2CN(Cc3ccccc3Cl)CC[C@@H]21`, for which the “Activity (viral titer)” value is listed as “− (>60% viral titer at 15 μM (highest concentration tested))”.

`Cc1ccccc1CN1CC[C@H]2[C@@H](C1)[C@H](c1ccsc1)CN2C(=O)c1ccncc1`: the “Activity (viral titer)” value is “− (>60% viral titer at 15 μM (highest concentration tested))”.

With `CC(C)c1ccc(CN2CC[C@H]3[C@@H](C2)[C@H](c2ccsc2)CN3C(=O)c2ccncc2)cc1`, the “Activity (viral titer)” value is listed as “− (>60% viral titer at 15 μM (highest concentration tested))”.

For `COc1ccc(CN2CC[C@H]3[C@@H](C2)[C@H](c2ccsc2)CN3C(=O)c2ccncc2)cc1`, the “Activity (viral titer)” value was “− (>60% viral titer at 15 μM (highest concentration tested))”.

For the molecule `COc1cccc(CN2CC[C@H]3[C@@H](C2)[C@H](c2ccsc2)CN3C(=O)c2ccncc2)c1`, the “Activity (viral titer)” value was “− (>60% viral titer at 15 μM (highest concentration tested))”.

As to `O=C(c1ccncc1)N1C[C@@H](c2ccsc2)[C@@H]2CN(Cc3cccc(F)c3F)CC[C@@H]21`, the “Activity (viral titer)” value is “− (>60% viral titer at 15 μM (highest concentration tested))”.

`Cc1ccc(CN2CCC3C(C2)C(c2ccsc2)CN3C(=O)c2ccncc2)cc1` (stereo not drawn): the “Activity (viral titer)” value was “− (>60% viral titer at 15 μM (highest concentration tested))”.

Turning to `O=C(c1ccncc1)N1CC(c2ccsc2)C2CN(Cc3ccc(F)cc3)CCC21` (stereo not drawn), the “Activity (viral titer)” value was “+ (≦60% viral titer at 15 μM)”.

`O=C(c1ccncc1)N1CC(c2ccsc2)C2CN(Cc3ccccc3)CCC21` (stereo not drawn): the “Activity (viral titer)” value is “− (>60% viral titer at 15 μM (highest concentration tested))”.

With `O=C(c1ccncc1)N1C[C@@H](c2ccc(F)cc2)[C@@H]2CN(Cc3ccccc3Cl)CC[C@@H]21`, the “Activity (viral titer)” value is reported as “+++ (≦30% viral titer at 5 μM)”.

With `O=C(c1ccncc1)N1CC(c2ccc(F)cc2)C2CN(Cc3ccccc3F)CCC21` (stereo not drawn), the “Activity (viral titer)” value is “− (>60% viral titer at 15 μM (highest concentration tested))”.

Consider `Cc1ccccc1CN1CCC2C(C1)C(c1ccc(F)cc1)CN2C(=O)c1ccncc1` (stereo not drawn), for which the “Activity (viral titer)” value is given as “− (>60% viral titer at 15 μM (highest concentration tested))”.

With `O=C(c1ccncc1)N1C[C@@H](c2ccc(F)cc2)[C@@H]2CN(Cc3ccccn3)CC[C@@H]21`, the “Activity (viral titer)” value is recorded as “− (>60% viral titer at 15 μM (highest concentration tested))”.

For the molecule `O=C(c1ccncc1)N1CC(c2ccc(F)cc2)C2CN(Cc3cccc(F)c3)CCC21` (stereo not drawn), the “Activity (viral titer)” value was “− (>60% viral titer at 15 μM (highest concentration tested))”.

In the case of `O=C(c1ccncc1)N1C[C@@H](c2ccc(F)cc2)[C@@H]2CN(Cc3ccc(F)cc3)CC[C@@H]21`, the “Activity (viral titer)” value is “− (>60% viral titer at 15 μM (highest concentration tested))”.

Regarding `O=C(c1ccncc1)N1CC(c2ccc(F)cc2)C2CN(Cc3ccncc3)CCC21` (stereo not drawn), the “Activity (viral titer)” value was “− (>60% viral titer at 15 μM (highest concentration tested))”.

Turning to `O=C(c1ccncc1)N1CC(c2ccc(F)cc2)C2CN(Cc3ccccc3)CCC21` (stereo not drawn), the “Activity (viral titer)” value is recorded as “− (>60% viral titer at 15 μM (highest concentration tested))”.

As to `O=C(c1ccccc1)N1C[C@@H](c2ccsc2)[C@@H]2CN(Cc3ccccc3Cl)CC[C@@H]21`, the “Activity (viral titer)” value is “− (>60% viral titer at 15 μM (highest concentration tested))”.

As for `COc1ccccc1CN1CC[C@H]2[C@@H](C1)[C@H](c1ccsc1)CN2C(=O)c1ccccc1`, the “Activity (viral titer)” value is given as “− (>60% viral titer at 15 μM (highest concentration tested))”.

Turning to `O=C(c1ccccc1)N1C[C@@H](c2ccsc2)[C@@H]2CN(Cc3cccc(F)c3)CC[C@@H]21`, the “Activity (viral titer)” value is listed as “− (>60% viral titer at 15 μM (highest concentration tested))”.

As for `O=C(c1ccccc1)N1CC(c2ccsc2)C2CN(Cc3cccnc3)CCC21` (stereo not drawn), the “Activity (viral titer)” value is on record as “− (>60% viral titer at 15 μM (highest concentration tested))”.

With `O=C(c1ccccc1)N1CC(c2ccsc2)C2CN(Cc3ccc(F)c(F)c3)CCC21` (stereo not drawn), the “Activity (viral titer)” value was “++ (≦60% viral titer at 5 μM)”.

With `O=C(c1ccccc1)N1C[C@@H](c2ccsc2)[C@@H]2CN(Cc3ccc(F)cc3)CC[C@@H]21`, the “Activity (viral titer)” value is listed as “++ (≦60% viral titer at 5 μM)”.

Turning to `O=C(c1ccccc1)N1CC(c2ccsc2)C2CN(Cc3ccccc3)CCC21` (stereo not drawn), the “Activity (viral titer)” value is reported as “++ (≦60% viral titer at 5 μM)”.

On to `Cc1nn(C)cc1CN1CCC2C(C1)C(c1ccc(F)cc1)CN2C(=O)c1ccccc1` (stereo not drawn), for which the “Activity (viral titer)” value is given as “+ (≦60% viral titer at 15 μM)”.

With `COc1ccc(C2CN(C(=O)c3ccccc3)C3CCN(Cc4ccc(F)cc4)CC23)cc1` (stereo not drawn), the “Activity (viral titer)” value is “+++ (≦30% viral titer at 5 μM)”.
